This note sets out measurements from patent US20230086703A1, “N-(4-(5-chloropyridin-3-yl)phenyl)-2-(2-(cyclopropanesulfonamido)pyrimidin-4-yl) butanamide derivatives and related compounds as human CTPS1 inhibitors for the treatment of proliferative diseases” (Step Pharma S.A.S., priority 2019, published 2023).

The structures appear in SMILES notation.

The target in the assay is T1, human CTPS1 (Homo sapiens, UniProt P17812).
T1 construct: FLAG (with GG linker); His8 (with GG linker); purchased Proteros biostructures GmbH
T1 sequence (P17812 1-591): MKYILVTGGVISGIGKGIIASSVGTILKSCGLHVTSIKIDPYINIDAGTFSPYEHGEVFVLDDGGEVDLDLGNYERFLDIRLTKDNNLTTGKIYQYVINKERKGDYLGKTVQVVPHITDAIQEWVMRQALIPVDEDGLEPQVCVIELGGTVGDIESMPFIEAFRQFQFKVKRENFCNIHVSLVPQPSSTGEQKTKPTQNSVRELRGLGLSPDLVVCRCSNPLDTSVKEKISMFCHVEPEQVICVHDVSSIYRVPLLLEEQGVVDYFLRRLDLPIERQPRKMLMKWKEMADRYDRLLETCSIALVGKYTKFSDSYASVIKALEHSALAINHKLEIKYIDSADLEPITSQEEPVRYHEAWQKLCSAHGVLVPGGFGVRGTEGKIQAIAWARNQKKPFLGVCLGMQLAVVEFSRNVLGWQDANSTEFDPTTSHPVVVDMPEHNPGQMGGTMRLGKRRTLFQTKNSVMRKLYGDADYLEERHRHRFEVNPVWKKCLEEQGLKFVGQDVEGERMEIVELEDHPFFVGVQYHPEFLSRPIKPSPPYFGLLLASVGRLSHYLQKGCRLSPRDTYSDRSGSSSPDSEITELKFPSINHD
Description: Human CTPS1 enzyme inhibition, ADP-Glo Max assay. Particulars: ADP-Glo Max assay; Table 10; read-out: Human CTPS1 Enzyme Inhibition, IC50 grouped by potency range (CTPS1). In kind it is biochemical. Put shortly:
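Enzyme preincubated with compound for 10 min at 25 °C in 50 mM Tris pH 8.0, 10 mM MgCl2, 0.01% Tween-20, 2 mM L-cysteine. ATP-to-ADP conversion detected by ADP-Glo Max luminescence after 60 min depletion and 60 min development steps. Percentage inhibition calculated per concentration.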

`CN(C(=O)C(C)(C)c1csc(NS(=O)(=O)C2CC2)n1)c1ccc(-c2cncc(C(F)(F)F)n2)cc1` [T310, 2-(2-(cyclopropanesulfonamido)thiazol-4-yl)-N,2-dimethyl-N-(4-(6-(trifluoromethyl)pyrazin-2-yl)phenyl)propanamide]: the IC50 fell in the range of 1000 to 10000 nM.

For the compound `CC(C)CS(=O)(=O)Nc1nc(C(C)(C)C(=O)Nc2ccc(-c3cncc(C(F)(F)F)n3)cc2)cs1` [T313, 2-methyl-2-(2-((2-methylpropyl)sulfonamido)thiazol-4-yl)-N-(4-(6-(trifluoromethyl)pyrazin-2-yl)phenyl)propanamide], the half-maximal inhibitory concentration (IC50) lay in the range of 100 to 1000 nM.

Turning to `Cc1cc(-c2cncc(C#N)n2)ccc1NC(=O)C(C)(C)c1csc(NS(=O)(=O)C2CC2)n1` [T465, N-(4-(6-cyanopyrazin-2-yl)-2-methylphenyl)-2-(2-(cyclopropanesulfonamido)thiazol-4-yl)-2-methylpropanamide], the IC50 lay in the range of 1000 to 10000 nM.

Regarding `Cc1cc(-c2cncc(F)c2)ccc1NC(=O)C(C)(C)c1csc(NS(=O)(=O)C2CC2)n1` [T287, 2-(2-(cyclopropanesulfonamido)thiazol-4-yl)-N-(4-(5-fluoropyridin-3-yl)-2-methylphenyl)-2-methylpropanamide], the IC50 was below 100 nM.

Turning to `CCOc1cncc(-c2ccc(NC(=O)C(C)(C)c3csc(NS(C)(=O)=O)n3)c(F)c2)n1` [T431, N-(4-(6-ethoxypyrazin-2-yl)-2-fluorophenyl)-2-methyl-2-(2-(methylsulfonamido)thiazol-4-yl)propanamide], the IC50 was below 100 nM.

For the compound `CC(C)(C(=O)Nc1ccc(-c2cncc(C(F)(F)F)n2)cc1)c1csc(NS(=O)(=O)C2CC2)n1` [T267, 2-(2-(cyclopropanesulfonamido)thiazol-4-yl)-2-methyl-N-(4-(6-(trifluoromethyl)pyrazin-2-yl)phenyl)propanamide], the 50% inhibitory concentration (IC50) was below 100 nM.

For `CCCOc1cncc(-c2ccc(NC(=O)C(C)(C)c3csc(NS(=O)(=O)C4CC4)n3)nc2)c1` [T146, 2-(2-(cyclopropanesulfonamido)thiazol-4-yl)-2-methyl-N-(5′-propoxy-[3,3′-bipyridin]-6-yl)propanamide], the IC50 lay within 100 to 1000 nM.

Consider `O=C(Cc1csc(NS(=O)(=O)C2CC2)n1)Nc1ccc(-c2cncnc2)cc1` [T247, 2-(2-(cyclopropanesulfonamido)thiazol-4-yl)-N-(4-(pyrimidin-5-yl)phenyl)acetamide], for which the IC50 lay in the range of 100 to 1000 nM.

Take `COc1cccc(-c2ccc(NC(=O)C(C)(C)c3csc(NS(=O)(=O)C4CC4)n3)cc2)c1` [T28, 2-(2-(cyclopropanesulfonamido)thiazol-4-yl)-N-(3′-methoxy-[1,1′-biphenyl]-4-yl)-2-methylpropanamide]: the IC50 was 100 to 1000 nM.

Regarding `Cc1cc(Cl)cc(-c2ccc(NC(=O)C(C)(C)c3csc(NS(=O)(=O)C4CC4)n3)nc2)c1` [T231, N-(5-(3-chloro-5-methylphenyl)pyridin-2-yl)-2-(2-(cyclopropanesulfonamido)thiazol-4-yl)-2-methylpropanamide], the IC50 lay within 1000 to 10000 nM.

With `CCCOc1cncc(-c2ccc(NC(=O)C(CC)(CC)c3csc(NS(=O)(=O)C4CC4)n3)cc2)n1` [T123, 2-(2-(cyclopropanesulfonamido)thiazol-4-yl)-2-ethyl-N-(4-(6-propoxypyrazin-2-yl)phenyl)butanamide], the IC50 was below 100 nM.

Regarding `Cc1cnc(C)c(-c2ccc(NC(=O)C(C)(C)c3csc(NS(=O)(=O)C4CC4)n3)cc2)n1` [T284, 2-(2-(cyclopropanesulfonamido)thiazol-4-yl)-N-(4-(3,6-dimethylpyrazin-2-yl)phenyl)-2-methylpropanamide], the IC50 was in the range of 1000 to 10000 nM.

For `CC(C)(C(=O)Nc1ccc(-c2cncc(F)c2)cn1)c1csc(NS(=O)(=O)C2CC2)n1` [T261, 2-(2-(cyclopropanesulfonamido)thiazol-4-yl)-N-(5′-fluoro-[3,3′-bipyridin]-6-yl)-2-methylpropanamide], the IC50 is below 100 nM.

For `CC(C)(C(=O)Nc1ccc(-c2cncc(C(F)(F)F)n2)cc1)c1csc(NS(=O)(=O)C(C)(C)C)n1` [T305, 2-(2-((1,1-dimethylethyl)sulfonamido)thiazol-4-yl)-2-methyl-N-(4-(6-(trifluoromethyl)pyrazin-2-yl)phenyl)propanamide], the IC50 lay within 100 to 1000 nM.

Consider `CC(C)(C(=O)Nc1ncc(-c2cncc(F)c2)cn1)c1csc(NS(=O)(=O)C2CC2)n1` [T293, 2-(2-(cyclopropanesulfonamido)thiazol-4-yl)-N-(5-(5-fluoropyridin-3-yl)pyrimidin-2-yl)-2-methylpropanamide], for which the IC50 was 100 to 1000 nM.

Take `CC(C)(C(=O)Nc1ccc(-c2cncc(OC(F)F)c2)cn1)c1csc(NS(=O)(=O)C2CC2)n1` [T115, 2-(2-(cyclopropanesulfonamido)thiazol-4-yl)-N-(5′-(difluoromethoxy)-[3,3′-bipyridin]-6-yl)-2-methylpropanamide]: the IC50 was below 100 nM.

In the case of `Cc1cc(-c2cncc(C#N)c2)ccc1NC(=O)C(C)(C)c1csc(NS(=O)(=O)C2CC2)n1` [T286, N-(4-(5-cyanopyridin-3-yl)-2-methylphenyl)-2-(2-(cyclopropanesulfonamido)thiazol-4-yl)-2-methylpropanamide], the IC50 was below 100 nM.

With `Cc1ccc(-c2ccc(NC(=O)Cc3csc(NS(=O)(=O)C4CC4)n3)cc2)cn1` [T101, 2-(2-(cyclopropanesulfonamido)thiazol-4-yl)-N-(4-(6-methylpyridin-3-yl)phenyl)acetamide], the half-maximal inhibitory concentration (IC50) lay within 1000 to 10000 nM.

As for `CCOc1cncc(-c2ccc(NC(=O)C(C)(C)c3csc(NS(=O)(=O)C(C)(C)C)n3)cc2)n1` [T304, 2-(2-((1,1-dimethylethyl)sulfonamido)thiazol-4-yl)-N-(4-(6-ethoxypyrazin-2-yl)phenyl)-2-methylpropanamide], the IC50 lay in the range of 100 to 1000 nM.

For `CCCOc1cncc(-c2ccc(NC(=O)C(C)(C)c3csc(NS(=O)(=O)C4CC4)n3)nc2)n1` [T38, 2-(2-(cyclopropanesulfonamido)thiazol-4-yl)-2-methyl-N-(5-(6-propoxypyrazin-2-yl)pyridin-2-yl)propanamide], the IC50 is below 100 nM.

On to `CC(C)(C(=O)Nc1ccc(-c2cccnc2F)cc1)c1csc(NS(=O)(=O)C2CC2)n1` [T240, 2-(2-(cyclopropanesulfonamido)thiazol-4-yl)-N-(4-(2-fluoropyridin-3-yl)phenyl)-2-methylpropanamide], for which the IC50 fell in the range of 100 to 1000 nM.

As for `CCOc1cncc(-c2ccc(NC(=O)C(CC)(CC)c3csc(NS(=O)(=O)C4CC4)n3)nc2)c1` [T145, 2-(2-(cyclopropanesulfonamido)thiazol-4-yl)-N-(5′-ethoxy-[3,3′-bipyridin]-6-yl)-2-ethylbutanamide], the IC50 was below 100 nM.

In the case of `COc1cc(-c2cccnc2)ccc1NC(=O)C(C)(C)c1csc(NS(=O)(=O)C2CC2)n1` [T149, 2-(2-(cyclopropanesulfonamido)thiazol-4-yl)-N-(2-methoxy-4-(pyridin-3-yl)phenyl)-2-methylpropanamide], the IC50 is below 100 nM.

With `CC(C)(C(=O)Nc1ncc(-c2cncc(C(F)(F)F)n2)cc1F)c1csc(NS(=O)(=O)C2CC2)n1` [T112, 2-(2-(cyclopropanesulfonamido)thiazol-4-yl)-N-(3-fluoro-5-(6-(trifluoromethyl)pyrazin-2-yl)pyridin-2-yl)-2-methylpropanamide], the IC50 is below 100 nM.
